Test results published in patent publication US20230277550A1, “Methods for Treating Respiratory Diseases Characterized by Mucus Hypersecretion” (The Board of Trustees of the Leland Stanford Junior …, priority 2020, published 2023).

Experiments:
[1] = test system: primary human epithelial cells; assay: Ciliary beat frequency and cilium length with DAPT; assay type: cell-based; details: cells differentiated in the presence of DAPT vs untreated
[2] = test system: Primary human airway epithelial cells; assay: GSI treatment from the apical or basal surface; assay type: cell-based; details: ALI+0 to +21d, apical or basal application
Method: Primary human airway epithelial cells were treated with DAPT and LY45139 during differentiation only (ALI+0 to +21d) from either the apical or basal surface, then labeled at ALI+21d with anti-acetylated α-Tubulin (green) and ECAD (red) antibodies. […] Apical treatment eliminates the air-liquid interface, which results in the poor epithelial structure and multiciliated cell differentiation in the untreated cultures, which is partially rescued by GSI treatment.

[3] = test system: healthy and CF primary human airway epithelial cultures; assay: SEM of cilia in healthy and CF cultures; assay type: cell-based; details: healthy and CF cultures under DAPT vs untreated healthy cultures
[4] = test system: Mature (ALI+30d) primary human airway epithelial cells; assay: GSI treatment of mature (ALI+30d) cultures; assay type: cell-based; details: mature cultures treated one (ALI+30 to +37d) or two weeks (ALI+30 to +44d)
Method: Mature (ALI+30d) primary human airway epithelial cells were treated with DAPT and semagacestat for one (ALI+30 to +37d) or two weeks (ALI+30 to +44d), then labeled with anti-acetylated α-Tubulin (green) and ECAD (red) antibodies.

[5] = test system: HNEC cultures from a CF patient; assay: IL-13 induced chronic inflammation model in ALI HNEC cultures; assay type: cell-based, human; details: DAPT 1 um, semagacestat 125 nm, days 14-21
Method: Administration of IL-13 to ALI cultures induces goblet cell hyperplasia and is a useful model of chronic inflammation. ALI HNEC cultures were prepared as described in Vladar et al. ALI cultures were treated with and without administration of Il-13 on days 7-14. DAPT (1 um), semagacestat (125 nm) or vehicle control were administered on days 14-21. PFA-fixed cultures were stained for Muc5AC (red; mucin producing secretory cells), Acetylated tubulin (green; MCCs) and E-Cadherin (blue to reveal cell boundaries).
HNEC cultures from a CF patient were treated with IL-13 from ALI+7 to 14 to induce inflammation. […] IL-13 treatment increases the percentage of mucin positive secretory cells and decreases the percentage of MCCs.

[6] = test system: primary human nasal epithelial cells (HNECs); assay: Semagacestat dose response on multiciliated cell (MCC) formation in HNEC ALI cultures; assay type: cell-based; details: 1 µM DAPT; p <0.01 by ANOVA with Dunnett's test
Method: Air-Liquid Interface (ALI) cultures were prepared as described in Vladar EK, Nayak JV, Milla CE, Axelrod JD. Airway epithelial homeostasis and planar cell polarity signaling depend on multiciliated cell differentiation. JCI Insight. 2016;1(13);e88027. Human nasal epithelial cells (HNECs) were generated from human sinonasal epithelial brushings or from tissue obtained from patients undergoing endoscopic sinus surgery at Stanford Hospital and cultured as described in Vladar et al.
Cultures were treated with varying doses of semagacestat. DAPT (Abcam) was used ([…]) as a positive control for GSI activity. Cultures were labeled at ALI+21d with anti-acetylated α-tubulin (green) and ECAD (red) antibodies to mark cilia and epithelial junctions.
The ratio was defined as MCC number/total luminal cells. Counting was done on one representative image from 5 culture replicates from a single donor.

[7] = test system: Primary human airway epithelial cells; assay: MCC formation by timing of GSI treatment (proliferation, differentiation, continuous); assay type: cell-based
Method: Primary human airway epithelial cells were treated with DAPT and LY45139: i) during proliferation only (ALI-5 to -1d), ii) during differentiation only (ALI+0 to +21d) or iii) continuously during the entire culture duration, followed by labeling at ALI+21d with anti-acetylated α-Tubulin (green) and ECAD (red) antibodies.

[8] = test system: Mature (ALI+30d) primary cystic fibrosis human airway epithelial cells; assay: DAPT treatment of mature cystic fibrosis cultures; assay type: cell-based; details: mature CF cultures, one week (ALI+30 to +37d)
Method: Mature (ALI+30d) primary cystic fibrosis human airway epithelial cells were treated with DAPT for one week (ALI+30 to +37d), then labeled with anti-acetylated α-Tubulin (green) and ECAD (red) antibodies.

[9] = test system: Primary human airway epithelial cells; assay: MCC formation with a variety of GSIs at high and low concentrations; assay type: cell-based; details: for epithelial structure: high concentrations; for epithelial structure / multiciliated cell formation: ALI+0 to +21d; for multiciliated cell formation: low concentration; for Notch signaling and differentiation towards MCCs: nanomolar range, human nasal epithelial cells
[10] = test system: CFTR; assay: CFTR current in Ussing chambers, GSI with or without ETI; assay type: cell-based, human
Method: Cells grown at an air liquid interface were mounted on a holding slider and inserted on an Ussing chamber for electrophysiological short circuit current (Isc) measurements. Solutions in the serosal and mucosal bath were prepared so that a chloride gradient was established between both sides. After stable baseline current recordings were obtained, agonists were added in the following order: amiloride (10 µM) to block sodium channel activity, forskolin (10 µM) to stimulate CFTR, Ivacaftor (10 µM) to potentiate CFTR activity, and CFTRinh-172 (20 µM) to block CFTR current. For each agonist signals were monitored until a plateau in current was noted before adding the next agonist. The delta-Isc in response to CFTRinh-172 was used as our main read out for CFTR-mediated chloride transport.
We directly measured CFTR activity in cultures from CF patients treated with GSI with or without well-established effective in vitro doses of Trikafta (Elexcaftor/Tezacaftor/Ivacaftor or “ETI”). Veit, G., et al., JCI (2020) 10.1172/jci.insight.139983. Measurements were performed in Ussing chambers. […] In some individual experiments, there appeared to be a synergistic effect in the combination treatment: GSI alone has no effect but the combination treatment produced a greater response than ETI alone. This effect was not consistently seen, but raised the possibility that synergy might be observed with lower ETI doses.
To examine this further, we tested MK04752 in combination with varying doses of ETI (FIG. 28).

[11] = test system: Primary nasal epithelial cells from two CF donors (F508del homozygotes); assay: Ciliary beat frequency (CBF) in CF donor cultures, MK-0752 and Elexacaftor; assay type: cell-based, human; details: MK-0752 125 nM or triple modulator with Elexacaftor 100 nM; p < 0.001
[12] = cited from earlier work

C[C@H](NC(=O)Cc1cc(F)cc(F)c1)C(=O)NC(C(=O)OC(C)(C)C)c1ccccc1 (some centres unmarked) [DAPT]
ciliary beat frequency [1]: modest, but significant increase
cilium length [1]: no difference
ciliated cell formation [2]: induces ciliated cell formation via both apical and basal application
structure of multiciliated cells by SEM [3]: indistinguishable from those in untreated healthy cultures
formation of additional multiciliated cells [4]: induces the formation of additional multiciliated cells
percentage of MCCs ([5]; after IL-13 (ALI+7 to 14)): increasing the percentage of MCCs
percentage of mucin positive secretory cells ([5]; after IL-13 (ALI+7 to 14)): decreasing the percentage of mucin positive secretory cells
percentage of MCCs ([5]; controls without IL-13): increase the percentage off MCCs
ratio MCC number/total luminal cells [6]: significant increases
MCC cell numbers ([7]; treatment during differentiation (differentiation only ALI+0 to +21d, and continuous)): increased MCC cell numbers
effect on differentiation ([7]; treatment during proliferation only (ALI-5 to -1d)): had no effect on differentiation
formation of additional multiciliated cells [8]: induces the formation of additional multiciliated cells in mature cystic fibrosis cultures

O=C(O)CC[C@H]1CC[C@@](c2cc(F)ccc2F)(S(=O)(=O)c2ccc(Cl)cc2)CC1 [MK-0752]
epithelial structure [9]: disrupted epithelial structure
multiciliated cell formation [9]: induced multiciliated cell formation
Notch signaling and differentiation towards MCCs [9]: effective in blocking Notch signaling, driving differentiation towards MCCs
CFTR current with suboptimal doses of ETI ([10]; MK04752 with varying (reduced Elexacaftor) doses of ETI): suboptimal doses of ETI appear to be potentiated by MK04752
CFTR current induced by ETI ([10]; cultures from CF patients, GSI plus ETI): Neither LY45139 (FIG. 26) nor MK04752 (FIG. 27) impaired the CFTR current
ciliary beat frequency (CBF) vs control [11]: significant effect in increasing the CBF
most common drug-related toxicities ([12]; 450 to 4,200 mg, three schedules): diarrhea, nausea, vomiting, and fatigue
tolerability ([12]; weekly dosing): generally well-tolerated

CC(C)(C(=O)NCC(F)(F)C(F)(F)F)C(=O)N[C@@H]1C(=O)Nc2ccccc2-c2ccccc21 [RO-4929097]
epithelial structure [9]: disrupted epithelial structure
multiciliated cell formation [9]: induced multiciliated cell formation
Notch signaling and differentiation towards MCCs [9]: effective in blocking Notch signaling, driving differentiation towards MCCs

CCC[C@H](N[C@H]1CCc2cc(F)cc(F)c2C1)C(=O)Nc1cn(C(C)(C)CNCC(C)(C)C)cn1 [nirogacestat, (S)-2-((S)-5,7-difluoro-1,2,3,4-tetrahydronaphthalen-3-ylamino)-N-(1-(2-m-ethyl-1-(neopentylamino)propan-2-yl)-1H-imidazol-4-yl)pentanamide]
epithelial structure [9]: disrupted epithelial structure
multiciliated cell formation [9]: induced multiciliated cell formation
Notch signaling and differentiation towards MCCs [9]: effective in blocking Notch signaling, driving differentiation towards MCCs
